Test system: Koi
Experiment: Feeding of toxic pellets to Koi in aquatic tanks (consumption, mortality)
Assay type: in vivo
Conditions: juvenile Koi

SMILES	mortality / toxicity
[O]=[Ca] [calcium oxide]	did not kill Koi
CC(=O)Nc1ccc(O)cc1 [acetaminophen]	None of the Koi died

Source: US10617119B1, “Piscicide composition” (priority 2018, dated 2020)
